Measurements taken from patent US9187450B2, “Substituted pyridine compound” (Daiichi Sankyo Company, Limited, priority 2010, dated 2015).

Target: recombinant human CETP protein (Homo sapiens (Human), UniProt P11597)
Test: Test of CETP inhibition activity (in vitro, buffer-based)
Type: biochemical
Conditions: reconstituted HDL with [14C]-labeled cholesteryl ester, acceptor lipoprotein, 37° C.
Method in brief: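 Reconstituted HDL carrying [14C]-cholesteryl ester served as donor and plasma IDL/LDL (density 1.019–1.063) as acceptor, with 4.5 ng recombinant CETP in PBS pH 7.4. Compound (DMSO stocks 0.15–500 μM) was preincubated with CETP and acceptor for 60 min at 37 °C, then reacted with donor for 60 min. HDL-fraction radioactivity after MgCl2/dextran sulfate precipitation gave % inhibition and IC50.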

Sequence of recombinant human CETP protein (P11597 18-493): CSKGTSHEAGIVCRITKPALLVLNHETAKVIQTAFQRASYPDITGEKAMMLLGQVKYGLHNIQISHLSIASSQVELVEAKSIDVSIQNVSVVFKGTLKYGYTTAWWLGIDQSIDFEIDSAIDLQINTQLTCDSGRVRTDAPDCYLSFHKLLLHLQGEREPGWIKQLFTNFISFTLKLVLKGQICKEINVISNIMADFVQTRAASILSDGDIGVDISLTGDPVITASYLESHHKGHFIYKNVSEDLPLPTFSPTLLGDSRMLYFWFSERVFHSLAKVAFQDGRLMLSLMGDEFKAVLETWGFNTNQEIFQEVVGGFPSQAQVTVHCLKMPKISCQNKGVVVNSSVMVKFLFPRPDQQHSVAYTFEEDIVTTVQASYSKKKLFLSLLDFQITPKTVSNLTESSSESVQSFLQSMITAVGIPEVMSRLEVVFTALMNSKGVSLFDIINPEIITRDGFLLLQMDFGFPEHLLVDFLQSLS

Structure (SMILES)	IC50 [nM]
CC1(C)Cc2nc(C3CCN(c4ncc(C5CC5)cn4)CC3)c([C@@H](F)c3ccc(C(F)(F)F)cc3)c(C3CCC(F)(F)CC3)c2[C@@H](O)C1 (single isomer, unassigned) [Example 19, (−)-2-[1-(5-Cyclopropylpyrimidin-2-yl)piperidin-4-yl]-4-(4,4-difluorocyclohexyl)-3-{fluoro[4-(trifluoromethyl)phenyl]methyl}-7,7-dimethyl-5,6,7,8-tetrahydroquinolin-5-ol]	198
CSc1cnc(N2CCC(c3nc4c(c(C5CCC(F)(F)CC5)c3[C@@H](F)c3ccc(C(F)(F)F)cc3)[C@@H](O)CC(C)(C)C4)CC2)nc1 (single isomer, unassigned) [Example 53, (−)-4-(4,4-Difluorocyclohexyl)-3-{fluoro[4-(trifluoromethyl)phenyl]methyl}-7,7-dimethyl-2-[1-(5-methylthiopyrimidin-2-yl)-piperidin-4-yl]-5,6,7,8-tetrahydroquinolin-5-ol]	34
CC1(C)Cc2nc(C3CCN(c4ncc(OC(F)F)cn4)CC3)c([C@@H](F)c3ccc(C(F)(F)F)cc3)c(C3CCC(F)(F)CC3)c2[C@@H](O)C1 (single isomer, unassigned) [Example 48, (−)-4-(4,4-Difluorocyclohexyl)-2-{1-[5-(difluoromethoxy)pyrimidin-2-yl]piperidin-4-yl}-3-{fluoro[4-(trifluoromethyl)phenyl]methyl}-7,7-dimethyl-5,6,7,8-tetrahydroquinolin-5-ol]	42
CC1(C)Cc2nc(C3CCN(c4ncc(OCC(C)(CO)CO)cn4)CC3)c([C@@H](F)c3ccc(C(F)(F)F)cc3)c(C3CCC(F)(F)CC3)c2[C@@H](O)C1 (single isomer, unassigned) [Example 50, (−)-4-(4,4-Difluorocyclohexyl)-3-{fluoro[4-(trifluoromethyl)phenyl]methyl}-2-(1-{5-[3-hydroxy-2-(hydroxymethyl)-2-methylpropoxy]pyrimidin-2-yl}piperidin-4-yl)-7,7-dimethyl-5,6,7,8-tetrahydroquinolin-5-ol]	13
CC(C)Oc1cnc(N2CCC(c3nc4c(c(C5CCC(F)(F)CC5)c3[C@@H](F)c3ccc(C(F)(F)F)cc3)[C@@H](O)CC(C)(C)C4)CC2)nc1 (single isomer, unassigned) [Example 14, (−)-4-(4,4-Difluorocyclohexyl)-3-{fluoro[4-(trifluoromethyl)phenyl]methyl}-7,7-dimethyl-2-{1-[5-(propan-2-yloxy)pyrimidin-2-yl]piperidin-4-yl}-5,6,7,8-tetrahydroquinolin-5-ol]	97
CC1(C)Cc2nc(C3CCN(c4ncc(C5=CCCCC5)cn4)CC3)c([C@@H](F)c3ccc(C(F)(F)F)cc3)c(C3CCC(F)(F)CC3)c2[C@@H](O)C1 (single isomer, unassigned) [Example 18, (−)-2-{1-[5-(Cyclohex-1-ene-1-yl)pyrimidin-2-yl]piperidin-4-yl}-4-(4,4-difluorocyclohexyl)-3-{fluoro[4-(trifluoromethyl)phenyl]methyl}-7,7-dimethyl-5,6,7,8-tetrahydroquinolin-5-ol]	177
CC(C)(O)CCOc1cnc(N2CCC(c3nc4c(c(C5CCC(F)(F)CC5)c3[C@@H](F)c3ccc(C(F)(F)F)cc3)[C@@H](O)CC(C)(C)C4)CC2)nc1 (single isomer, unassigned) [Example 43, (−)-4-(4,4-Difluorocyclohexyl)-3-{fluoro[4-(trifluoromethyl)phenyl]methyl}-2-{1-[5-(3-hydroxy-3-methylbutoxy)pyrimidin-2-yl]piperidin-4-yl}-7,7-dimethyl-5,6,7,8-tetrahydroquinolin-5-ol]	9
CC1(C)Cc2nc(C3CCN(c4ncc(C(=O)N5CCOCC5)cn4)CC3)c([C@@H](F)c3ccc(C(F)(F)F)cc3)c(C3CCC(F)(F)CC3)c2[C@@H](O)C1 (single isomer, unassigned) [Example 32, 4-(4,4-Difluorocyclohexyl)-3-{fluoro[4-(trifluoromethyl)phenyl]methyl}-7,7-dimethyl-2-{1-[5-(morpholin-4-yl-carbonyl)pyrimidin-2-yl]piperidin-4-yl}-5,6,7,8-tetrahydroquinolin-5-ol]	19
CC1(C)Cc2nc(C3CCN(c4ncc(S(C)(=O)=O)cn4)CC3)c([C@@H](F)c3ccc(C(F)(F)F)cc3)c(C3CCC(F)(F)CC3)c2[C@@H](O)C1 (single isomer, unassigned) [Example 54, (−)-4-(4,4-Difluorocyclohexyl)-3-{fluoro[4-(trifluoromethyl)phenyl]methyl}-7,7-dimethyl-2-{1-[5-(methylsulphonyl)pyrimidin-2-yl]piperidin-4-yl}-5,6,7,8-tetrahydroquinolin-5-ol]	32
CC1(C)Cc2nc(C3CCN(c4ncc(OCCCCC(=O)O)cn4)CC3)c([C@@H](F)c3ccc(C(F)(F)F)cc3)c(C3CCC(F)(F)CC3)c2[C@@H](O)C1 (single isomer, unassigned) [Example 23, (−)-2-{1-[5-(4-Carboxybutoxyl)pyrimidin-2-yl]piperidin-4-yl}-4-(4,4-difluorocyclohexyl)-3-{fluoro[4-(trifluoromethyl)phenyl]methyl}-7,7-dimethyl-5,6,7,8-tetrahydroquinolin-5-ol]	37
CC1(C)Cc2nc(C3CCN(c4ncc(OCC(CO)CO)cn4)CC3)c([C@@H](F)c3ccc(C(F)(F)F)cc3)c(C3CCC(F)(F)CC3)c2[C@@H](O)C1 (single isomer, unassigned) [Example 49, (−)-4-(4,4-Difluorocyclohexyl)-3-{fluoro[4-(trifluoromethyl)phenyl]methyl}-2-(1-{5-[3-hydroxy-2-(hydroxymethyl)propoxy]pyrimidin-2-yl}piperidin-4-yl)-7,7-dimethyl-5,6,7,8-tetrahydroquinolin-5-ol]	8
CC1(C)Cc2nc(C3CCN(c4ncc(CO)cn4)CC3)c([C@@H](F)c3ccc(C(F)(F)F)cc3)c(C3CCC(F)(F)CC3)c2[C@@H](O)C1 [Example 20, (−)-4-(4,4-Difluorocyclohexyl)-3-{fluoro[4-(trifluoromethyl)phenyl]methyl}-2-[1-[5-(hydroxymethyl)pyrimidin-2-yl]piperidin-4-yl]-7,7-dimethyl-5,6,7,8-tetrahydroquinolin-5-ol]	255
